# From ChEMBL document CHEMBL1201862, “PubChem BioAssay data set” (2004)
# The source made the active and inactive calls.
# How the values were obtained:
# [1] = viability loss in THP-1 monocytes – THP-1 cells, cytotoxicity control for Vif-APOBEC3G degradation inhibitor project, dose response (AID 1117359); assay type: functional; conditions: THP-1
# [2] = biological target: T1, Heat shock factor protein 1 (Mus musculus, UniProt P38532); assay: decrease of HSF1-responsive luciferase luminescence – cell-based, NIH3T3, dose retest, confirmation (AID 2382); assay type: functional;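 also: NIH3T3 fibroblasts with HSF1-driven luciferase reporter stressed by proteasome inhibitor MG132; luminescence from HSF1-driven luciferase expression after 8 hours of MG132 stress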
# T1 sequence (P38532 whole entry): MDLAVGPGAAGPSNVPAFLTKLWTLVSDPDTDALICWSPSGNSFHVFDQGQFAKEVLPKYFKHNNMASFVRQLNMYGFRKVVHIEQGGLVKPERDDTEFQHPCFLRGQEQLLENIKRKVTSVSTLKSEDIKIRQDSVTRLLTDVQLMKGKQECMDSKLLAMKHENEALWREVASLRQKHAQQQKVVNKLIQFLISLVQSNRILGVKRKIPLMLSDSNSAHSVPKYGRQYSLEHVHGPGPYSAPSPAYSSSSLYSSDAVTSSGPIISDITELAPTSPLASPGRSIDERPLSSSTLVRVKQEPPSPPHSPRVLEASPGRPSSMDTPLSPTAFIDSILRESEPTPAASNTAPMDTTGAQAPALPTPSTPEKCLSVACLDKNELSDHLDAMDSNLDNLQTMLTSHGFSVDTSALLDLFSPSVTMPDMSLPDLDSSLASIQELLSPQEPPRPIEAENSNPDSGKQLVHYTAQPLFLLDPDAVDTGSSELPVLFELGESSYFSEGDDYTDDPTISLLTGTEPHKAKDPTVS
# [3] = biological target: Beta-2 adrenergic receptor (Homo sapiens, UniProt P07550); assay: ADRB2 activation measured by internalization – cell-based, FAP fluorogen, flow cytometry, cherry pick 1, dose response (AID 588763); assay type: functional
# Chain of Beta-2 adrenergic receptor (P07550 whole entry): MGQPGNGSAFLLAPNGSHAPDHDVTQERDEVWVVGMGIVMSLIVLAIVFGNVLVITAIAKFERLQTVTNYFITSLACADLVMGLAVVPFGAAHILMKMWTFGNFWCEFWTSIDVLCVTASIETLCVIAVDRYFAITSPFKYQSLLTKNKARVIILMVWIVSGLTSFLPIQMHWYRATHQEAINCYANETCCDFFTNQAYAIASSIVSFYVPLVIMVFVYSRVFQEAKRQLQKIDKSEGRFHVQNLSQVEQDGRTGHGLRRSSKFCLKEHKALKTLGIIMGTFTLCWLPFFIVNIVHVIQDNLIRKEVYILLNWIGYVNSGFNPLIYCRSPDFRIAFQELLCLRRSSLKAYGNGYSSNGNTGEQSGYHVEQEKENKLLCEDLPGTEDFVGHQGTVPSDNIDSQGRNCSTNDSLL
# [4] = HEK-293T viability loss after treatment – luminescence, T-cell screen hits, cytotoxicity control for TCR NF-kB inhibitor project, dose response (AID 489026); assay type: functional, cell-based;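 also: cells exposed to compound about 14 hours before the viability readout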
# [5] = biological target: T2, Calpain-2 catalytic subunit (Sus scrofa, UniProt P43367); assay: m-calpain protease blockers, concentration series – biochemical, fluorogenic peptide substrate, dose response (AID 1420); assay type: functional
# T2 sequence (P43367 whole entry): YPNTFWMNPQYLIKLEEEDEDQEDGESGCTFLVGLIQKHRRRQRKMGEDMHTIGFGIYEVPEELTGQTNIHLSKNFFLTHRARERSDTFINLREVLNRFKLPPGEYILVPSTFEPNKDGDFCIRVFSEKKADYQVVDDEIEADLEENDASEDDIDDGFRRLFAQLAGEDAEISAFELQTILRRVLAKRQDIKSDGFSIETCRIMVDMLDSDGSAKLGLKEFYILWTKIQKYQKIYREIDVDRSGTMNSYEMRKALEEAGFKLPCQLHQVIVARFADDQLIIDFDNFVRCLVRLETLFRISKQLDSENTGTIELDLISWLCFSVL
# [6] = biological target: T3, Fatty acid synthase (Homo sapiens, UniProt P49327); assay: inhibition of human FAS-TE enzyme activity – biochemical, endpoint fluorescence intensity, uHTS hits, dose response (AID 624327); assay type: functional;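 also: fluorescence from hydrolysis of an O-methyl fluorescein acyl ester substrate by the enzyme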
# T3 sequence (P49327 whole entry): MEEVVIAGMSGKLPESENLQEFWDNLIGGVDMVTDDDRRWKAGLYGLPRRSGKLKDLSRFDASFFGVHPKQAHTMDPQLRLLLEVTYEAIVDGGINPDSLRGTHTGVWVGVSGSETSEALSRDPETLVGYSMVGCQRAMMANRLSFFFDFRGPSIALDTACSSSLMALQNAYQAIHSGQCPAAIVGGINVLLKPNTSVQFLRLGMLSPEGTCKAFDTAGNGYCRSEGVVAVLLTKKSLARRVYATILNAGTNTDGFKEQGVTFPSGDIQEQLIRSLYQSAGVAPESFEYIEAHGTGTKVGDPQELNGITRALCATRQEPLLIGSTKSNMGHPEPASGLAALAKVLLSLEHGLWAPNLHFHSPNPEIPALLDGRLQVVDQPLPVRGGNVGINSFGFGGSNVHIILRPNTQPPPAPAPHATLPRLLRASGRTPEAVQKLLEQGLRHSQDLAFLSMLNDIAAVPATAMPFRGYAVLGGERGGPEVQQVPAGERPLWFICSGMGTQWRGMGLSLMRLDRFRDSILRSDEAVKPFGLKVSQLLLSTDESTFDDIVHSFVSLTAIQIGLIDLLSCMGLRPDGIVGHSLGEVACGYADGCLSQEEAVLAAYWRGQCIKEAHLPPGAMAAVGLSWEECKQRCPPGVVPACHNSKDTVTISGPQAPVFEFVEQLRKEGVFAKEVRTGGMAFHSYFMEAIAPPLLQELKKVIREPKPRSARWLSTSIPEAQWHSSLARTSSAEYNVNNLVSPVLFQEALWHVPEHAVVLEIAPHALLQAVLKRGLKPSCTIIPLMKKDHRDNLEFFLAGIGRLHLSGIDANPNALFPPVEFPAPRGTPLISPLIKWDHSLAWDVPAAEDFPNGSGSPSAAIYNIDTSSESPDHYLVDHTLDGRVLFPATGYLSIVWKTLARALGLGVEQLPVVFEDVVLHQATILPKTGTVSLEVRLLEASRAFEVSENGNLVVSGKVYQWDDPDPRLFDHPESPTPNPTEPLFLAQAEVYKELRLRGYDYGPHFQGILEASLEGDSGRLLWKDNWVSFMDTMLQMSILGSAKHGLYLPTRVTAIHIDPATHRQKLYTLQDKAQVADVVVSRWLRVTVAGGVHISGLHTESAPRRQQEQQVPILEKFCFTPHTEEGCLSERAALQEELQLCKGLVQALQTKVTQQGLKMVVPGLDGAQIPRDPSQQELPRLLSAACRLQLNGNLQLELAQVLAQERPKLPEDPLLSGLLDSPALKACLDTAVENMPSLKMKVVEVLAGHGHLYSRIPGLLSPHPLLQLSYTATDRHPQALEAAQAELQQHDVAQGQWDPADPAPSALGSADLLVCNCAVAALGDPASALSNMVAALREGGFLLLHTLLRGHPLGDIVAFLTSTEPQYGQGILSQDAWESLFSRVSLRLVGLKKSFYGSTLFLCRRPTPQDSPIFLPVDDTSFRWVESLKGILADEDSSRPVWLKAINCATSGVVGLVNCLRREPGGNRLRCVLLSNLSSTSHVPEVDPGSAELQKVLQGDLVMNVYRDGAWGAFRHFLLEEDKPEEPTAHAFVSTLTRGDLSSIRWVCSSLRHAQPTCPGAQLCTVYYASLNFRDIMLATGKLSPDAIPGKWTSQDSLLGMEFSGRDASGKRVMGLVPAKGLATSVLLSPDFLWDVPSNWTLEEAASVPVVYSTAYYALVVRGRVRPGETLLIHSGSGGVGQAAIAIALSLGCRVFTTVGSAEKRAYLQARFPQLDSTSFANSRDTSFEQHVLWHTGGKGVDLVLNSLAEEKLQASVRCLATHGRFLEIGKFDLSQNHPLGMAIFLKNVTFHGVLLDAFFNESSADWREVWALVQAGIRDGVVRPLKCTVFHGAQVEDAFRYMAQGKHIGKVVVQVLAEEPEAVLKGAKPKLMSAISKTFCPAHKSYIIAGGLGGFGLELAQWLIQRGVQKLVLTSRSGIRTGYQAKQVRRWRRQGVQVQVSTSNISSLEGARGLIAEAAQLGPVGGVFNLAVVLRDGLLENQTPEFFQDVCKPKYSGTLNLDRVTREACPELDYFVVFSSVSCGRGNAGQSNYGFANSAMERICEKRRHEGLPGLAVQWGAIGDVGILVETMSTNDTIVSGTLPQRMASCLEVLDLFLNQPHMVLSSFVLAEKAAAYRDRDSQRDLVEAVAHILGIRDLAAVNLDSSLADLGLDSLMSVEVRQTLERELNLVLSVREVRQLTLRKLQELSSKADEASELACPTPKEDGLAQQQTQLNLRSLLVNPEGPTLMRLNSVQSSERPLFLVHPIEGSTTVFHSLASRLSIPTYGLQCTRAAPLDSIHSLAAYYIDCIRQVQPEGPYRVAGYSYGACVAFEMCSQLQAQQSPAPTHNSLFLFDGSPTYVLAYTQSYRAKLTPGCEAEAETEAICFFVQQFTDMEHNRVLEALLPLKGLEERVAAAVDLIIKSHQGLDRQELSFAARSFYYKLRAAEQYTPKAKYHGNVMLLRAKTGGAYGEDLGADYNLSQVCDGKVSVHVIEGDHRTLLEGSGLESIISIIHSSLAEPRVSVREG
# [7] = viability of HCT116 lacking mutant beta-catenin – cell-based, human colon tumor, dose response (AID 1045); assay type: functional;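 also: HCT116 colon tumor cells with beta catenin knocked out; cells exposed to compound for 60 hours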
# [8] = tested on: Streptococcus sp. 'group A'; assay: Streptococcus pyogenes SK(-)GAS viability under kanamycin – luminescence, BacTiterGlo, confirmation, counter-screen for streptokinase expression inhibitor project, dose response (AID 1900); assay type: functional, organism-based
# [9] = viability of uninfected HEp-2 cells – cell-based, HTS, cytotoxicity control for RSV inhibitor project, dose response (AID 2410); assay type: functional; conditions: human respiratory syncytial virus
# [10] = viability of PTEN-deleted HCT116 cells – cell-based, HCT116 PTEN knockout, dose response (AID 1047); assay type: functional;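 also: HCT116 colon tumor cells with PTEN knocked out; cells exposed to compound for 60 hours before readout; potency for loss of cell viability measured by luminescence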
# [11] = biological target: T3, Fatty acid synthase; assay: inhibition of human FAS-TE enzyme activity – biochemical, kinetic fluorescence intensity, dose response (AID 624326); assay type: functional;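 also: rate of fluorescence rise from hydrolysis of a fluorogenic O-methyl fluorescein ester substrate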
# [12] = tested on: Streptococcus; assay: GAS UMAA2166 growth inhibition – luminescence, BacTiterGlo, counter-screen for streptokinase expression inhibitor project, dose response (AID 1915); assay type: functional, organism-based;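 also: potency for reduction of bacterial viability or growth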
# [13] = biological target: T4, Streptokinase A (Streptococcus pyogenes serotype M1, UniProt P10520); assay: viability-normalized secreted streptokinase activity reduction – plasminogen activation absorbance, OD405, dose response (AID 1914); assay type: functional, Streptococcus pyogenes M1 GAS;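 also: secreted streptokinase activity via plasminogen activation per viability signal from cell pellet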
# T4 sequence (P10520 whole entry): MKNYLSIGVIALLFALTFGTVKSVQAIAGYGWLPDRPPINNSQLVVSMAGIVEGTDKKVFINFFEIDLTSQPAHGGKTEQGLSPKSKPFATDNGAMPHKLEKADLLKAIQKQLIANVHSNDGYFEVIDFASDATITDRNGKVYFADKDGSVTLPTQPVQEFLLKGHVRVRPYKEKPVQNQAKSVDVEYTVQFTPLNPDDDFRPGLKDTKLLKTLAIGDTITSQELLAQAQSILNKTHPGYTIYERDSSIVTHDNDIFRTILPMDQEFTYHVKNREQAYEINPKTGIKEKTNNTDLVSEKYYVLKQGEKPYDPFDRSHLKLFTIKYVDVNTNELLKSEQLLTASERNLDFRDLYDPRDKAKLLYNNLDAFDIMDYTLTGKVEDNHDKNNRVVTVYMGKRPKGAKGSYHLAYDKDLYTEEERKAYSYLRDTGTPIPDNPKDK
# [14] = biological target: T5, Protein skinhead-1 (Caenorhabditis elegans, UniProt P34707); assay type: functional
# T5 sequence (P34707 whole entry): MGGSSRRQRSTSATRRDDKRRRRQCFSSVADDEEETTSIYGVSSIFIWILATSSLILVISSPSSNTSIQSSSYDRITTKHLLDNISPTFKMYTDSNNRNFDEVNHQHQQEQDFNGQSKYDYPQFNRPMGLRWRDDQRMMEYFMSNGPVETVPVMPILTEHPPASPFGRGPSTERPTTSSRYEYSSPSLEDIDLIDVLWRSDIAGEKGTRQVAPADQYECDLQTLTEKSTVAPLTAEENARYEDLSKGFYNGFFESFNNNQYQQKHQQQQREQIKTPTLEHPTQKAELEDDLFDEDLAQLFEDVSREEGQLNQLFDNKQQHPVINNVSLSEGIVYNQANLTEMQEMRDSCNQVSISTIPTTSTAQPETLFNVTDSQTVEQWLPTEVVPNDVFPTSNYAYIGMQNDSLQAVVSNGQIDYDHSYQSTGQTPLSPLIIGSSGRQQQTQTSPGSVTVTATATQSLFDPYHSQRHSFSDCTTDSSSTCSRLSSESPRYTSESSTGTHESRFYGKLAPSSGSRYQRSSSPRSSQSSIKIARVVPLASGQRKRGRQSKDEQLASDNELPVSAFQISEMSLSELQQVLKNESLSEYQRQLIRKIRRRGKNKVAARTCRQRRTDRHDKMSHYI
compound,measurement,setting,value
COc1ccc(C2Nc3ccccc3C(=O)N2c2ccc(Cl)cc2)cc1Cn1cc([N+](=O)[O-])cn1 (stereo not given),CC50,[1],> 40 µM (active)
CCCCOc1cccc(C(=O)Nc2ccc(NC(=O)c3cccs3)cc2)c1,EC50,[2],9.51 µM (active)
same,EC50,[3],0.256 µM (active)
COc1cc([C@@H]2c3cc4c(cc3[C@@H](OC)[C@H]3COC(=O)[C@H]23)OCO4)cc(OC)c1O,IC50,[4],> 80 µM (inactive)
COCCCNc1ncnc2c1sc1nc(-c3ccco3)c3c(c12)CC(C)(C)OC3,EC50,[3],0.0417 µM (active)
CC(=O)Nc1cc(C(=O)OC(C(=O)c2ccccc2)c2ccccc2)ccc1C (stereo not given),IC50,[5],> 50 µM (not active)
same,EC50,[3],0.402 µM (active)
CCCCOc1ccc(-c2c(C#N)c(N)nc(SCC(N)=O)c2C#N)cc1,IC50,[6],1.12 µM (active)
same,EC50,[7],21.2 µM (active)
same,EC50,[8],6.77 µM (active)
same,CC50,[9],19.9 µM (active)
same,EC50,[10],15.8 µM (active)
same,IC50,[11],0.644 µM (active)
same,EC50,[12],> 150 µM (not active)
same,EC50,[13],> 150 µM (not active)
O=C(Nc1cccc(-c2nc3ccccc3s2)c1)c1cccs1,CC50,[9],15.4 µM (active)
same,EC50,[3],16.9 µM (inactive)
CCC(=O)c1ccc(OCC(=O)N2CCN(CC(=O)Nc3ccc(C)cc3)CC2)cc1,EC50,[3],0.0646 µM (active)
Oc1cc(-c2ccccc2)nc2cc(F)ccc12,IC50,[4],> 80 µM (inactive)
O=c1c2ccccc2sc2ccccc12,IC50,[14],59.3 µM (inactive)
